Results reported in ChEMBL document CHEMBL1201862, “PubChem BioAssay data set” (2004).
Activity calls are given as the source filed them.

Columns and labels:
[1] = target: Eukaryotic translation initiation factor 4H (Homo sapiens, UniProt Q15056); experiment: inhibitors of translation initiation factor eIF4H – SAR follow-up (AID 435011); type: functional
[2] = target: Polyadenylate-binding protein 1 (Homo sapiens, UniProt P11940); experiment: PABP inhibition in translation initiation, SAR follow-up (AID 435018); type: functional
Chain of Polyadenylate-binding protein 1 (P11940 whole entry): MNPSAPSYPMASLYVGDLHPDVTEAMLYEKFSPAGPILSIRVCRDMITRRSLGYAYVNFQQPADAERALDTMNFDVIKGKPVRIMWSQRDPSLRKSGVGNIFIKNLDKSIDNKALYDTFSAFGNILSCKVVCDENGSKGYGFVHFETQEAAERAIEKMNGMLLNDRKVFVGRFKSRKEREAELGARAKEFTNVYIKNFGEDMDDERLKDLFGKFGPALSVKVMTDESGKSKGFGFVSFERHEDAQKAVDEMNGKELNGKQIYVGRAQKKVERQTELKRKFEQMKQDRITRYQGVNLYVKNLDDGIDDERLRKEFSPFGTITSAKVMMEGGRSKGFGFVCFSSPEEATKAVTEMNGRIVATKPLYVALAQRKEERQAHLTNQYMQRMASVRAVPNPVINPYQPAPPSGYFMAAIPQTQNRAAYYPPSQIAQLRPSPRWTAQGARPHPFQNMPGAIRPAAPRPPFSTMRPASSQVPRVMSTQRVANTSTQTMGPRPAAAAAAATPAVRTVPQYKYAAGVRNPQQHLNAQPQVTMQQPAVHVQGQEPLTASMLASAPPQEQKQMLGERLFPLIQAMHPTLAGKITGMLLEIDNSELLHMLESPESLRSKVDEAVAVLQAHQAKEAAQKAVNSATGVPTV

[3] = target: Large T antigen (Simian virus 40, UniProt P03070); experiment: A confirmatory biochemical assay using the ADP-Hunter methodology, purified TAg, and ATP to quantify activity of synthesized compounds that inhibit the ATPase activity of Tag (3). [Related pubchem assays (depositor defined):AID1903, AID1909, AID2102, AID2501, AID2615, AID2775, AID435001, AID449729]; parameters: species or system Betapolyomavirus macacae
Chain of Large T antigen (P03070 whole entry): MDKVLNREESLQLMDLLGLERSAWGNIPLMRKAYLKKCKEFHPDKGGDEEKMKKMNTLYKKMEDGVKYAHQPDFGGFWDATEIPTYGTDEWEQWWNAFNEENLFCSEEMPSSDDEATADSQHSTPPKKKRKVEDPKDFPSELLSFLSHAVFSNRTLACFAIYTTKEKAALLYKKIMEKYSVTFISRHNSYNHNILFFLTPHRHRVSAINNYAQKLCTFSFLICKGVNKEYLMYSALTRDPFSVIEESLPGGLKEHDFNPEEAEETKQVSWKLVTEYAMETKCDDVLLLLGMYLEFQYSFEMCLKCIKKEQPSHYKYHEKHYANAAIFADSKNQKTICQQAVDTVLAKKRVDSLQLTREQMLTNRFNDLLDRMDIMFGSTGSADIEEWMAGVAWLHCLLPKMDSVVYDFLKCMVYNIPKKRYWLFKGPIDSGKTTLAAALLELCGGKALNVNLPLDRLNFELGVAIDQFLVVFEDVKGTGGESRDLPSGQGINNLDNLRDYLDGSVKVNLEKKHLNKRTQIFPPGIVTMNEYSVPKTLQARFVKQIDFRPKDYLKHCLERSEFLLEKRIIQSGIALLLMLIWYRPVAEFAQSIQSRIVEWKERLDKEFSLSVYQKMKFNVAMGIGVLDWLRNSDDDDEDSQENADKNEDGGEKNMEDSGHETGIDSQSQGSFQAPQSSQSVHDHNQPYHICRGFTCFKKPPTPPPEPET

[4] = target: T1, Mu-type opioid receptor (Homo sapiens, UniProt P35372); experiment: mu opioid receptor blockers – image-based, SAR follow-up (AID 2420); type: functional;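 note: compounds added before stimulation of receptor with agonist DAMGO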
T1 sequence (P35372 whole entry): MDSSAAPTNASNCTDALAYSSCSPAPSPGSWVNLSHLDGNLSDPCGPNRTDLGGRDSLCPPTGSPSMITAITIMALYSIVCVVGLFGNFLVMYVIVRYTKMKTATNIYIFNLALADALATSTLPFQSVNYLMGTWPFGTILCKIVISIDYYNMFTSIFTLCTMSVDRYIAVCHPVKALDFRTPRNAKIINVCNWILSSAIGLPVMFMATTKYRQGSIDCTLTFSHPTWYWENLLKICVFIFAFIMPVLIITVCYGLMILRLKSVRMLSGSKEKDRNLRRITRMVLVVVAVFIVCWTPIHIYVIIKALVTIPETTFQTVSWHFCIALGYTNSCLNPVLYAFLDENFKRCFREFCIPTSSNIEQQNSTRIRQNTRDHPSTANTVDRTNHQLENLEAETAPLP

[5] = target: T2, Delta-type opioid receptor (Homo sapiens, UniProt P41143); experiment: delta opioid receptor blockers – image-based, SAR follow-up (AID 2357); type: functional
T2 sequence (P41143 whole entry): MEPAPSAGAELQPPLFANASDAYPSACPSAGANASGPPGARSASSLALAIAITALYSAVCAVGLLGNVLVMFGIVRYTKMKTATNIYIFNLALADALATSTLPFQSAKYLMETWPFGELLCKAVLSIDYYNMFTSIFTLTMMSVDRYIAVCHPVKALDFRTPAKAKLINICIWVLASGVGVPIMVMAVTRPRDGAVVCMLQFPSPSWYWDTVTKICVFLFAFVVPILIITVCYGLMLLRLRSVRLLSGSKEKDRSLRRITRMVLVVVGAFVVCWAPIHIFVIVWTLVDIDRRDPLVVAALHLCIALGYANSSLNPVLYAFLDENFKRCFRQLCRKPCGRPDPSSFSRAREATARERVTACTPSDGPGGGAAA

[6] = target: T2, Delta-type opioid receptor; experiment: DOR agonists, SAR follow-up, image-based (AID 2370); type: functional
[7] = target: T3, Kappa-type opioid receptor (Homo sapiens, UniProt P41145); type: functional
T3 sequence (P41145 whole entry): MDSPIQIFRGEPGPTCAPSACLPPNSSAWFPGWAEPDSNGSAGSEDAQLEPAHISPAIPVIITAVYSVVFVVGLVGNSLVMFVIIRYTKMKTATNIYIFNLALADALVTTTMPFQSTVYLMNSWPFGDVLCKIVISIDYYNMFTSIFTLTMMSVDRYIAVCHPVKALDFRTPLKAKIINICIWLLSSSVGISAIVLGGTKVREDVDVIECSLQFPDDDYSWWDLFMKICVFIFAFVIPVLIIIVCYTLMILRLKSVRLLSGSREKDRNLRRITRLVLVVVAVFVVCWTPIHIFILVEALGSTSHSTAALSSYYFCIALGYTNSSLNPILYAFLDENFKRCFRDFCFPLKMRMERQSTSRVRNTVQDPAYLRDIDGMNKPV

[8] = target: T3, Kappa-type opioid receptor; experiment: kappa opioid receptor blockers, image-based, SAR follow-up (AID 2348); type: functional
[9] = target: T3, Kappa-type opioid receptor; type: functional; remark: listed apart in the source
[10] = target: T1, Mu-type opioid receptor; experiment: mu opioid receptor activators, image-based, SAR follow-up (AID 2352); type: functional
[11] = target: Intestinal-type alkaline phosphatase (Homo sapiens, UniProt P09923); experiment: Dose Response confirmation of uHTS hits from a small molecule inhibitors of human intestinal alkaline phosphatase via a luminescent assay. [Related pubchem assays (depositor defined):AID2544, AID2574]; type: functional
Chain of Intestinal-type alkaline phosphatase (P09923 whole entry): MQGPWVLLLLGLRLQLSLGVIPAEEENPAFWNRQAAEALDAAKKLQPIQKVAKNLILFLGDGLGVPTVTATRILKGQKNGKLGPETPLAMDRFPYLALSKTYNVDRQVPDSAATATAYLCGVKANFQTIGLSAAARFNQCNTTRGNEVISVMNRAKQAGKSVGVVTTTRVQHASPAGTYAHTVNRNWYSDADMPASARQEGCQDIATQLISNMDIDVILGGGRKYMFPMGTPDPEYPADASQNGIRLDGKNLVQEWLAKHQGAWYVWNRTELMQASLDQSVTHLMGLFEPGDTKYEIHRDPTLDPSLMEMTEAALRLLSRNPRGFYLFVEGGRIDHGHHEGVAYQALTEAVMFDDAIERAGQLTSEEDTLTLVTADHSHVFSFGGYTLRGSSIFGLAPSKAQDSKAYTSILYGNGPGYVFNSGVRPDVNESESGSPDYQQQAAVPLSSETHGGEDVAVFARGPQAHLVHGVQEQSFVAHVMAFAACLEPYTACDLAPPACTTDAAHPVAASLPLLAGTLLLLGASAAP

[12] = target: T4, Corticotropin-releasing factor receptor 2/Corticotropin-releasing factor-binding protein (Homo sapiens, UniProt P24387+Q13324); experiment: activators of CRF receptor 2 with binding protein – uHTS hits, confirmation (AID 602473); type: functional; conditions: read-out: EC50_Mean
T4 sequence (Q13324 whole entry): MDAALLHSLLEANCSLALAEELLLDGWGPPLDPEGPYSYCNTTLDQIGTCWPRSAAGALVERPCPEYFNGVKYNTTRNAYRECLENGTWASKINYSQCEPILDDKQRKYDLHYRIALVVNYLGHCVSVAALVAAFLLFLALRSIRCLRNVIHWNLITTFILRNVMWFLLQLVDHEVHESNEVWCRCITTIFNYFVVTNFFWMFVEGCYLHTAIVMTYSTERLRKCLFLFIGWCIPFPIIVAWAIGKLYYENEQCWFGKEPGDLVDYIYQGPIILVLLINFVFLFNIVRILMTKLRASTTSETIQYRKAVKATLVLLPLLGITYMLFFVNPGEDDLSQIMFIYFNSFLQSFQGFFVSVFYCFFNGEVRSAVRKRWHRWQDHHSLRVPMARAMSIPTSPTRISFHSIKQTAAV
T4 sequence (P24387 whole entry): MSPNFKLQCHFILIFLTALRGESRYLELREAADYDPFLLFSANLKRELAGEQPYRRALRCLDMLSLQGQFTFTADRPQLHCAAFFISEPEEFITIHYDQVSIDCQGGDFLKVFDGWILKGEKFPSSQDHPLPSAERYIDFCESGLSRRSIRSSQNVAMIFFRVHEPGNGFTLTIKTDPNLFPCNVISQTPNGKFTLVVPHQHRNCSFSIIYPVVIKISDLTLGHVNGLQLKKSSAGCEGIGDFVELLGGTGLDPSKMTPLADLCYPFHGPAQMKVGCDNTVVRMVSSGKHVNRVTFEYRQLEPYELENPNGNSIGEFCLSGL

[13] = target: T4, Corticotropin-releasing factor receptor 2/Corticotropin-releasing factor-binding protein; experiment: Dose Response confirmation of uHTS hits for small molecule antagonists of the CRF-binding protein and CRF-R2 receptor complex.; type: functional; conditions: read-out: IC50_Mean
[14] = HRAS-V12 fibroblast viability reduction – cell-based, Alamar Blue, dry powder, Ras selective lethality project, primary screen (AID 493045); type: functional; conditions: BJeLR
[15] = BJeHLT cell viability loss – BJeHLT cells, dry powder, counter-screen for Ras selective lethality project, dose response (AID 493052); type: functional, cell-based; conditions: Homo sapiens
[16] = DRD BJ cell killing, Ras synthetic lethality – DRD BJ fibroblasts, HRASV12, dry powder, dose response (AID 493049); type: functional, cell-based
[17] = BJeH cell viability loss – BJeH cells, dry powder, counter-screen for Ras selective lethality project, dose response (AID 493054); type: functional, cell-based
[18] = protection from phage-mediated lysis, alamar blue read-out – E. coli UTI89, K1F phage, bacterial capsule biogenesis inhibitors (AID 488966); type: functional
[19] = target: T5, Protein RecA (Mycobacterium tuberculosis, UniProt P9WHJ3); experiment: Fluorescence Cell-Free Homogeneous Dose Retest to Identify Inhibitors of RecA-Intein Splicing Activity. [Related pubchem assays (depositor defined):AID2097, AID2223, AID489010, AID492950]; type: functional
T5 sequence (P9WHJ3 whole entry): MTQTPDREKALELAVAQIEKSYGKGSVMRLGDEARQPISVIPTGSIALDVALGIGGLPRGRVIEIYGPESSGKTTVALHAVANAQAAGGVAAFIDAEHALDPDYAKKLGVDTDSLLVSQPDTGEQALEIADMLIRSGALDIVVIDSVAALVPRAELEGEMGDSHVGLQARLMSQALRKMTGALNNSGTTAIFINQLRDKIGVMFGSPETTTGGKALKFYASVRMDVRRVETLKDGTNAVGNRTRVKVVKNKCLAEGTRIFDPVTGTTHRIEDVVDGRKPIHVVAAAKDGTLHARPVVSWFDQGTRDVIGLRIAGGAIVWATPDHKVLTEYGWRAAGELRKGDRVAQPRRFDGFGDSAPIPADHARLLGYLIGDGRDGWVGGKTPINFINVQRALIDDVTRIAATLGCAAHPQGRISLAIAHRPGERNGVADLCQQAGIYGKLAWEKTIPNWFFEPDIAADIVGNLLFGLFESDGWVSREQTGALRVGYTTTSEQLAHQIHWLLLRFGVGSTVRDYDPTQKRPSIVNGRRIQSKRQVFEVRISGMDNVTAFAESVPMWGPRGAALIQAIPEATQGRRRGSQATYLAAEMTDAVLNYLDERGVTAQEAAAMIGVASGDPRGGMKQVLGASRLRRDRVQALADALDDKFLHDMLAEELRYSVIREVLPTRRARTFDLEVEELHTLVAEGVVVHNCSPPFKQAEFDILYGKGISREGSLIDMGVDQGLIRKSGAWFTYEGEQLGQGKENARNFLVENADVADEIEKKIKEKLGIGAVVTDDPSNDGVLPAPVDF

[20] = target: T6, Replicative DNA helicase DnaB (Mycobacterium tuberculosis, UniProt P9WMR3); experiment: DnaB intein splicing inhibitors, dose response, biochemical, cell-free fluorescence (AID 449749); type: functional
T6 sequence (P9WMR3 whole entry): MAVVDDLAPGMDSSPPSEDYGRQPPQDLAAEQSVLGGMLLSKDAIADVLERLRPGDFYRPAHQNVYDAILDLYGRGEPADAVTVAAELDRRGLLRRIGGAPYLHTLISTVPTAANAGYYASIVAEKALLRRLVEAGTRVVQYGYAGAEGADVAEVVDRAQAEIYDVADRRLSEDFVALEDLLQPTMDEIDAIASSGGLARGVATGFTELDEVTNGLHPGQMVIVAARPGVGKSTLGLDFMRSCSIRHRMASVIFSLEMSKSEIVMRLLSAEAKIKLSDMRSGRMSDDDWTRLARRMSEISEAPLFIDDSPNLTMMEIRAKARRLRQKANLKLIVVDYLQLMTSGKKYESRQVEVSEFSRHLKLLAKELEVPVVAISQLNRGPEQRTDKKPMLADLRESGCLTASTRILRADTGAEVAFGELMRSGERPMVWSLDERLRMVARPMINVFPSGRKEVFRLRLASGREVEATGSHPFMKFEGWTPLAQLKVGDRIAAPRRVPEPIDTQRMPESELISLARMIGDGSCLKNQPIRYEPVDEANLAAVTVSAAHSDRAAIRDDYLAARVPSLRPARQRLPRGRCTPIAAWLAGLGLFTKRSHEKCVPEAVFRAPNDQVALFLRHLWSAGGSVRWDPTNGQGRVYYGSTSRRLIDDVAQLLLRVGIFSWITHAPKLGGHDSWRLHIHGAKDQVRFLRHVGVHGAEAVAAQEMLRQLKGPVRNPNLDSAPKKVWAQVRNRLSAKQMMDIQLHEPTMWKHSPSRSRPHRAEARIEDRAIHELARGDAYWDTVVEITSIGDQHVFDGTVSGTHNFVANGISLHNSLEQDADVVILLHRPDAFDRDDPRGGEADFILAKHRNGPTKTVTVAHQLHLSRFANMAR

[21] = target: G-protein coupled receptor 35 (Homo sapiens, UniProt Q9HC97); experiment: inhibition of zaprinast-stimulated GPR35 beta-arrestin translocation – imaging, U2OS, beta-arrestin-GFP, zaprinast agonist, primary screen (AID 2058); type: functional;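 note: antagonist potency meaning inhibition of agonist-induced arrestin redistribution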
Chain of G-protein coupled receptor 35 (Q9HC97 whole entry): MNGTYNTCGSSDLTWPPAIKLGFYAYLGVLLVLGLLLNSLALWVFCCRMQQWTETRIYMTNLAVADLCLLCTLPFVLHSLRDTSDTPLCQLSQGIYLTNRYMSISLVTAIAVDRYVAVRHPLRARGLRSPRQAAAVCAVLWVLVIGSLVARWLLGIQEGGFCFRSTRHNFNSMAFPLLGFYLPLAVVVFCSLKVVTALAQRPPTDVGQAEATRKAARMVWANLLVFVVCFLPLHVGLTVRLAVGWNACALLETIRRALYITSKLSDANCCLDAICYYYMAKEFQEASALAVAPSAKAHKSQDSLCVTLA

[22] = system: Saccharomyces cerevisiae; experiment: S. cerevisiae Caspase-1/ASC signal blockers IC50, NALP1 inhibitor project selectivity test (AID 488863); type: functional, organism-based
[23] = target: NACHT, LRR and PYD domains-containing protein 1 (Homo sapiens, UniProt Q9C000); experiment: NALP1 inhibitors in yeast, dose response, luminescent (AID 488860); type: functional
[24] = Luminescence Cell-Based Dose Confirmation HTS to Identify Inhibitors of Platelet Dense Granule Release. [Related pubchem assays: 1663 (Primary HTS), 1678 (Summary of Project)]; type: functional
[25] = target: T7, Neuropeptide Y receptor type 1 (Homo sapiens, UniProt P25929); type: functional;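 note: HEK293 cells with a CNG channel challenged with NPY then isoproterenol; potency as antagonist that reverses NPY suppression of cAMP signal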
T7 sequence (P25929 whole entry): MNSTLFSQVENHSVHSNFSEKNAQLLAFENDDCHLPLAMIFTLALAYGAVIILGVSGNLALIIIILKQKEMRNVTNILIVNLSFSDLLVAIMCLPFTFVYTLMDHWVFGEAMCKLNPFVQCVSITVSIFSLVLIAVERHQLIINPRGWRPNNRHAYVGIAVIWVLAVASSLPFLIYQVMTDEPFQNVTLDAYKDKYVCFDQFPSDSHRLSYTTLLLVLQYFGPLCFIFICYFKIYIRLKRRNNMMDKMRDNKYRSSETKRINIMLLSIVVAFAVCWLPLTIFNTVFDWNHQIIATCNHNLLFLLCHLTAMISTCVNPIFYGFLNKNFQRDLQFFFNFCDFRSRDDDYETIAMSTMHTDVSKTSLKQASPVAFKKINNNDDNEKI

[26] = target: T8, Neuropeptide Y receptor type 2 (Homo sapiens, UniProt P49146); type: functional, cell-based;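 note: HEK293 cells expressing the receptor and a CNG channel; stimulus was NPY near EC95 followed by isoproterenol to raise cAMP; antagonist potency measured as restoring cAMP signal that NPY suppresses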
T8 sequence (P49146 whole entry): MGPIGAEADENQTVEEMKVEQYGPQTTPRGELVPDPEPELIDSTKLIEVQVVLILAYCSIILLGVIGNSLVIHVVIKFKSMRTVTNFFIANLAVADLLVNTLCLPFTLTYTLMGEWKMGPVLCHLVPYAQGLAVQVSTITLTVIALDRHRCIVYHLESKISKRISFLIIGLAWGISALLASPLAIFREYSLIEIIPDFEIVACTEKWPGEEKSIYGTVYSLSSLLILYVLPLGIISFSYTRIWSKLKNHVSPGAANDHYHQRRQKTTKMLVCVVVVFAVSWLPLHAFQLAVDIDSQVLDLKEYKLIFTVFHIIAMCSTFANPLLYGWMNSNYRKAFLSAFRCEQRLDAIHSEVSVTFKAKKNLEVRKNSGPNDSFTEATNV

[27] = target: Luciferin 4-monooxygenase (Photinus pyralis, UniProt P08659); experiment: inhibition of purified Photinus pyralis luciferase – biochemical, luminescence, dose response (AID 1891)
Chain of Luciferin 4-monooxygenase (P08659 whole entry): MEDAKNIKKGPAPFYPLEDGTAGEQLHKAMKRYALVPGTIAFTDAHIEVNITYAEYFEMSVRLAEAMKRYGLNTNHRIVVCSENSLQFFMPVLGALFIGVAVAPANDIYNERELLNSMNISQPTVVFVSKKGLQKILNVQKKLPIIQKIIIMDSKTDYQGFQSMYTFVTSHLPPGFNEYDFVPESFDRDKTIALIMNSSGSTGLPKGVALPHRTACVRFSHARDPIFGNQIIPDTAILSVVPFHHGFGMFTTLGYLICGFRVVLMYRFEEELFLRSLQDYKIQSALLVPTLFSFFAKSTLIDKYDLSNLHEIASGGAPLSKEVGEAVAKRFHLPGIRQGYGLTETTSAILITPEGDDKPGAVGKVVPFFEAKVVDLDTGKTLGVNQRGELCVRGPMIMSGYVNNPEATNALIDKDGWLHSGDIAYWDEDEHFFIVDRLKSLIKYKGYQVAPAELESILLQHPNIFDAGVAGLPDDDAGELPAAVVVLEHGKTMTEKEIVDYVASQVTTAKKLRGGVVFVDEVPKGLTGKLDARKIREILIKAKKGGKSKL

COc1ccccc1N=C1SC(C(=O)Nc2ccc(F)cc2)CC(=O)N1C (configuration not stated)
IC50 [1]: > 100 µM (inactive)
IC50 [2]: > 100 µM (inactive)

Oc1ccc(Oc2ccc(O)cc2)cc1
IC50 [3]: 37.7 µM (active)

CC(C)(C)c1ccc(CSc2nnc(-c3ccccn3)n2Cc2ccco2)cc1
IC50 [4]: > 32 µM (inactive)
IC50 [5]: > 32 µM (inactive)
EC50 [6]: > 32 µM (inactive)
EC50 [7]: 2.18 µM
IC50 [8]: > 32 µM (inactive)
EC50 [9]: 1.02 µM
EC50 [10]: > 32 µM (inactive)

Cc1ccccc1CNC(=O)c1ccccc1N
IC50 [11]: > 100 µM (inactive)
EC50 [12]: > 53 µM (inactive)
IC50 [13]: > 47.1 µM (inactive)

COc1ccc(N(C(=O)CCl)C(C(=O)NCc2ccccc2)c2cccs2)cc1Cl (configuration not stated)
AC50 [14]: 0.075 µM (active)
AC50 [15]: 0.179 µM (active)
AC50 [16]: 0.098 µM (active)
AC50 [17]: 0.336 µM (active)

CC/C(=C(/c1ccccc1)c1ccc(OCC[N+](C)(C)C)cc1)c1ccccc1
IC50 [18]: > 150 µM (active)

CC1(CC(=O)N/N=C/c2ccc(OCc3ccc(Cl)cc3Cl)cc2)OCCCO1
EC50 [19]: 11.1 µM (active)
AC50 [20]: 3.09 µM (active)
IC50 [21]: < 0.5 µM (active)

COc1cc(/C=N/n2cnnc2)ccc1OCc1ccc(C)cc1
IC50 [22]: > 100 µM (inactive)
IC50 [23]: > 100 µM (inactive)
EC50 [24]: 20.8 µM (active)
IC50 [25]: 7.08 µM (active)
IC50 [26]: 4.18 µM (active)
EC50 [27]: > 112 µM (not active)
